Test results: ChEMBL document CHEMBL1154256, “Inhibition of NF-kappaB activation and iNOS induction by ent-kaurane diterpenoids in LPS-stimulated RAW264.7 murine macrophages” (J Nat Prod, 2009)
Calls of active or inactive are those of the source. The rule behind the calls is not given here.

Assays:
RAW264.7 [1] = test: Inhibition of NF-kappaB activation in LPS-stimulated mouse RAW264.7 cells at 1 uM after 24 hrs by Western blotting; format: cell-based
[2] = (§1) Cytotoxicity against mouse RAW264.7 cells assessed as cell viability at 5 uM after 24 hrs by MTT assay; format: cell-based; settings: RAW264.7 cells, read-out: Activity
[3] = (§2) Cytotoxicity against mouse RAW264.7 cells assessed as cell viability at 10 uM after 24 hrs by MTT assay; format: cell-based; settings: RAW264.7 cells, read-out: Activity
RAW264.7 [4] = test: as §2; format: cell-based; settings: raw264.7, 24 h, 10 µM
[5] = (§3) Cytotoxicity against mouse RAW264.7 cells assessed as cell viability at 25 uM after 24 hrs by MTT assay; format: cell-based; settings: RAW264.7 cells, read-out: Activity
RAW264.7 [6] = test: Cytotoxicity against mouse RAW264.7 cells after 24 hrs by MTT assay; format: cell-based; settings: RAW264.7, 24 h
RAW264.7 [7] = test: Antiinflammatory activity against mouse RAW264.7 cells assessed as inhibition of LPS-induced nitrite accumulation after 24 hrs by Griess reagent method; format: functional, cell-based; settings: for IC50: RAW264.7, 24 h
RAW264.7 [8] = test: Antiinflammatory activity against mouse RAW264.7 cells assessed as inhibition of LPS-induced iNOS expression at 0.1 to 5 uM after 24 hrs by Western blotting; format: functional, cell-based
RAW264.7 [9] = test: Inhibition of iNOS mRNA expression in LPS-stimulated mouse RAW264.7 cells at 5 uM after 8 hrs by RT-PCR; format: functional, cell-based
[10] = Inhibition of NF-kappaB activation in LPS-stimulated mouse RAW264.7 cells assessed as relative luciferase activity after 24 hrs by dual reporter gene assay; format: cell-based; settings: RAW264.7, 24 h
RAW264.7 [11] = test: Inhibition of NF-kappaB p65 subunit translocation into nucleus in LPS-stimulated mouse RAW264.7 cells assessed as p65 protein level at 5 uM treated after LPS-stimulation for 24 hrs measured after 60 mins by Western blotting; format: functional, cell-based
RAW264.7 [12] = test: Inhibition of NF-kappaB p65 subunit translocation into nucleus in LPS-stimulated mouse RAW264.7 cells assessed as p65 protein level at 1 uM pretreated for 1 hr before LPS challenge after 60 mins immunofluorescence microscopy; format: functional, cell-based
RAW264.7 [13] = test: as §1; format: cell-based; settings: raw264.7, 24 h, 5 µM
RAW264.7 [14] = test: as §3; format: cell-based; settings: raw264.7, 24 h, 25 µM
[15] = biological target: T1, Inhibitor of nuclear factor kappa-B kinase subunit beta (Mus musculus) (UniProt O88351); test: Inhibition of LPS-stimulated IkappaB degradation in mouse RAW264.7 cells assessed as cellular IkappaB level at 5 uM treated after LPS-stimulation for 24 hrs measured after 60 mins by Western blotting; format: cell-based
T1 sequence (whole entry): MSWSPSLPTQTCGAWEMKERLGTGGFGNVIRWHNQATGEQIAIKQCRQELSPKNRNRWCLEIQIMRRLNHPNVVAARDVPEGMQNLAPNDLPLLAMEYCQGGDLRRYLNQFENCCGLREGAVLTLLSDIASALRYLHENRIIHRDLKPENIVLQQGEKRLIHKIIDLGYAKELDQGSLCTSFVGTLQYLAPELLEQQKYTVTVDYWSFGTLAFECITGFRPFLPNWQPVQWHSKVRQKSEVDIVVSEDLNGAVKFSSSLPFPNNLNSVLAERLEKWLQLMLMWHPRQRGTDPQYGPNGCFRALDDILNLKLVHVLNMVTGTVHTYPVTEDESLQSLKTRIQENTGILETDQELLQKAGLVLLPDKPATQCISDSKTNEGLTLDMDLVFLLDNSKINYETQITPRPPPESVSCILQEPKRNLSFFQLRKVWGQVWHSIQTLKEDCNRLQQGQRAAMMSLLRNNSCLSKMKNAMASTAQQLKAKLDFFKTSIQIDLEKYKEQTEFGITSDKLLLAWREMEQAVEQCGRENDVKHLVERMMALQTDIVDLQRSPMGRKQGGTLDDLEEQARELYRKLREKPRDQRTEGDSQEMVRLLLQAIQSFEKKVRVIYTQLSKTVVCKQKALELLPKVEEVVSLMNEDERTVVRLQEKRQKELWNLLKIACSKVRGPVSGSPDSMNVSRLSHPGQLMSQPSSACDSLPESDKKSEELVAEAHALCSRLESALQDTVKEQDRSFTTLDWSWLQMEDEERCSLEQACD

IC50 (RAW264.7 [7])	IC50 [10]	Activity [15]	SMILES	inhibition (RAW264.7 [1])	viability at 24 h, 5 µM [2]	viability at 24 h, 10 µM [3]	Activity (RAW264.7 [4])	viability at 24 h, 25 µM [5]	IC50 (RAW264.7 [6])	inhibition (RAW264.7 [7])	inhibition (RAW264.7 [8])	inhibition (RAW264.7 [9])	Activity (RAW264.7 [11])	Activity (RAW264.7 [12])	Activity (RAW264.7 [13])	Activity (RAW264.7 [14])
0.435 µM	1.2 µM		C=C1C(=O)[C@]23[C@H](O)[C@H]1CC[C@H]2[C@]12CCC[C@@](C)(COC(C)=O)[C@H]1[C@H](O)[C@]3(O)OC2 [LONGIKAURIN B]	Active	> 97.5%	> 97.5%	Non-toxic	> 97.5%	44.8 µM	Dose-dependent effect	Active	Active	Active	Active		
0.6 µM	1.8 µM		C=C1C(=O)[C@@]23[C@@H]4O[C@H]5O[C@@]2(O)[C@@H](O)[C@@H]2C(C)(C)CCC[C@]52[C@@H]3[C@@H](OC(C)=O)C[C@@H]14 [XEROPHILUSIN A]	Active	> 97.5%	> 97.5%		> 97.5%	11.3 µM	Dose-dependent effect	Active	Active	Active	Active	Non-toxic	
0.225 µM	0.7 µM		C=C1C(=O)[C@@]23[C@@H]4O[C@H]5O[C@@]2(O)[C@@H](O)[C@@H]2C(C)(C)CCC[C@]52[C@@H]3CC[C@@H]14 [XEROPHILUSIN B]	Active	> 97.5%	> 97.5%		> 97.5%	10.1 µM	Dose-dependent effect	Active	Active	Active	Active	Non-toxic	
0.673 µM	1.6 µM	Active	C=C1C(=O)[C@]23[C@H](O)[C@H]1C[C@H](OC(C)=O)[C@H]2[C@]12CCCC(C)(C)[C@H]1C(=O)[C@]3(O)[C@H]2O [XEROPHILUSIN F]	inactive	> 97.5%	> 97.5%		> 97.5%	52.4 µM	Dose-dependent effect	Active	Active	Active	Active		Non-toxic
